{"source": "paper PMC8743659", "about": "“C1632 suppresses the migration and proliferation of non‐small‐cell lung cancer cells involving LIN28 and FGFR1 pathway” (Journal of Cellular and Molecular Medicine, 2021)", "key": {"FGFR1": {"tested_on": "FGFR1", "test": "Western blot of FGFR1 signalling in NSCLC cells", "type": "cell-based, human", "conditions": "Ponatinib, A549 and A549R cell lines", "experimental": "The total cell protein was extracted and denaturized at 95°C for 10 min. Samples were separated in SDS‐PAGE gel, then transferred to a PVDF membrane. […] Blots were probed with relevant primary antibodies against FGFR1 (CST), p‐FGFR1 (CST), MAPK (CST), p‐MAPK (CST), FAK (CST), p‐FAK (CST), MMP‐9 (CST), LIN28B (CST), GAPDH (CST), and β‐actin (proteintech) overnight at 4°C, respectively. Then the lanes were detected with HRP‐conjugated secondary antibodies and visualized using WESTAR SUPERNOVA kit ([…])."}, "LIN28B": {"tested_on": "LIN28B", "test": "Western blot of LIN28B after FGFR1 inhibition", "type": "cell-based, human", "conditions": "Ponatinib, A549 and A549R cell lines", "experimental": "The total cell protein was extracted and denaturized at 95°C for 10 min. Samples were separated in SDS‐PAGE gel, then transferred to a PVDF membrane. Then this membrane was blocked with 5% non‐fat milk (solved in TBST) for 2.5 h at room temperature. Blots were probed with relevant primary antibodies against FGFR1 (CST), p‐FGFR1 (CST), MAPK (CST), p‐MAPK (CST), FAK (CST), p‐FAK (CST), MMP‐9 (CST), LIN28B (CST), GAPDH (CST), and β‐actin (proteintech) overnight at 4°C, respectively. Then the lanes were detected with HRP‐conjugated secondary antibodies and visualized using WESTAR SUPERNOVA kit (CYANAGEN)."}}}
{"smiles": "Cc1ccc(C(=O)Nc2ccc(CN3CCN(C)CC3)c(C(F)(F)F)c2)cc1C#Cc1cnc2cccnn12", "note": "[Ponatinib, reference compound]", "values": [{"measurement": "effect on FGFR1", "setting": "FGFR1", "result": "inhibited FGFR1"}, {"measurement": "expression of LIN28B", "setting": "LIN28B", "result": "suppressing the expression of LIN28B"}]}
